Results published in ChEMBL document CHEMBL4732126, “Design, synthesis, and biodistribution studies of new analogues of marine alkaloids: Potent in vitro and in vivo fungicidal agents against Candida spp” (Eur J Med Chem, 2021).
Activity calls are given as the source filed them. The calls are words filed in the database; no cut-off is given here.

What was measured:
Candida albicans [1] = test: Antifungal activity against Candida albicans isolate 8 assessed as reduction in fungal growth incubated for 48 hrs by broth microdilution method; format: functional
[2] = Toxicity in Swiss mouse assessed as relative liver weight at 0.5 mg/kg, ip measured after 24 hrs (reference value: 49.42 +/- 7.17 g); format: organism-based; details: in vivo
[3] = Toxicity in Swiss mouse infected with Candida albicans ATCC 10231 assessed as effect on body weight at 0.5 to 1 mg/kg, ip administered at 2, 24 and 48 hrs post-infection and measured at 24 hrs after last dose; format: organism-based; details: in vivo, 72 h, dose 0.5-1 mg/kg
[4] = Toxicity in Swiss mouse assessed as relative kidney weight at 10 mg/kg, ip measured after 24 hrs (reference value: 14.91 +/- 0.99 g); format: organism-based; details: in vivo
Candida albicans [5] = test: Fungicidal activity against Candida albicans ATCC 10231 assessed as reduction in fungal load at 7.8 ug/ml incubated for 4 hrs followed by inoculation on SD agar plate for 48 hrs by time-kill assay; format: functional; details: dose 7.8 µg/ml; time 52 hrs
Candida albicans [6] = test: Disruption of cell membrane in Candida albicans ATCC 10231 assessed as increase in intracellular leakage at MIC incubated for 24 hrs by UV spectrophotometric analysis; format: cell-based
[7] = Toxicity in Swiss mouse infected with Candida albicans ATCC 10231 assessed as reduction in body weight at 10 mg/kg, ip administered at 2, 24 and 48 hrs post-infection and measured at 24 hrs after last dose; format: organism-based; details: in vivo, 72 h
[8] = Toxicity in Swiss mouse assessed as relative liver weight at 20 mg/kg, ip measured after 24 hrs (reference value: 49.42 +/- 7.17 g); format: organism-based; details: in vivo
Candida tropicalis = test: Disruption of cell membrane in Candida tropicalis ATCC 28707 assessed as increase in intracellular leakage at MIC incubated for 24 hrs by UV spectrophotometric analysis; format: cell-based
Candida albicans [9] = test: Antifungal activity against Candida albicans isolate 1 assessed as reduction in fungal growth incubated for 48 hrs by broth microdilution method; format: functional
Candida albicans [10] = test: Fungicidal activity against Candida albicans isolate 9 assessed as fungal killing incubated for 48 hrs followed by plating on SD agar plate; format: functional; details: read-out: MFC99.9
[11] = Toxicity in Swiss mouse assessed as relative spleen weight at 20 mg/kg, ip measured after 24 hrs (reference value: 4.02 +/- 0.59 g); format: organism-based; details: in vivo
Candida albicans [12] = test: Antifungal activity against Candida albicans isolate 9 assessed as reduction in fungal growth incubated for 48 hrs by broth microdilution method; format: functional
Candida albicans [13] = test: Fungicidal activity against Candida albicans isolate 10 assessed as fungal killing incubated for 48 hrs followed by plating on SD agar plate; format: functional; details: read-out: MFC99.9
[14] = Toxicity in Swiss mouse assessed as effect on lung at 0.5 to 10 mg/kg, ip measured after 24 hrs by macroscopic analysis; format: organism-based; details: in vivo, dose 0.5-10 mg/kg
Candida albicans [15] = test: Fungicidal activity against Candida albicans ATCC 10231 assessed as reduction in fungal load at 15.6 ug/ml incubated for 4 hrs followed by inoculation on SD agar plate for 48 hrs by time-kill assay; format: functional; details: dose 15.6 µg/ml; time 52 hrs
Pichia kudriavzevii [16] = test: Antifungal activity against Candida krusei ATCC 34135 assessed as reduction in fungal growth incubated for 48 hrs by broth microdilution method; format: functional
Pichia kudriavzevii [17] = test: Antifungal activity against Candida krusei ATCC 34135 assessed as reduction in fungal growth incubated for 48 hrs in presence of sorbitol by broth microdilution method; format: functional
Nakaseomyces glabratus [18] = test: Disruption of cell membrane in Candida glabrata ATCC 2001 assessed as increase in intracellular leakage at MIC incubated for 24 hrs by UV spectrophotometric analysis; format: cell-based
Candida albicans [19] = test: Fungicidal activity against Candida albicans isolate 8 assessed as fungal killing incubated for 48 hrs followed by plating on SD agar plate; format: functional; details: read-out: MFC99.9
Candida albicans [20] = test: Antifungal activity against Candida albicans ATCC 10231 assessed as reduction in fungal growth incubated for 48 hrs in presence of sorbitol by broth microdilution method; format: functional
[21] = Toxicity in Swiss mouse infected with Candida albicans ATCC 10231 assessed as effect on kidney weight at 10 mg/kg, ip administered at 2, 24 and 48 hrs post-infection and measured at 24 hrs after last dose; format: organism-based; details: in vivo, 72 h
Candida albicans [22] = test: Fungicidal activity against Candida albicans isolate 2 assessed as fungal killing incubated for 48 hrs followed by plating on SD agar plate; format: functional; details: read-out: MFC99.9
[23] = Toxicity in Swiss mouse assessed as relative spleen weight at 10 mg/kg, ip measured after 24 hrs (reference value: 4.02 +/- 0.59 g); format: organism-based; details: in vivo
[24] = Toxicity in Swiss mouse assessed as body weight at 10 mg/kg, ip measured after 24 hrs (reference value: 36.25 +/- 0.31 g); format: organism-based; details: in vivo
Candida albicans [25] = test: Antifungal activity against Candida albicans isolate 4 assessed as reduction in fungal growth incubated for 48 hrs by broth microdilution method; format: functional
[26] = Toxicity in Swiss mouse assessed as relative spleen weight at 1 mg/kg, ip measured after 24 hrs (reference value: 4.02 +/- 0.59 g); format: organism-based; details: in vivo
[27] = Toxicity in Swiss mouse assessed as relative lung weight at 1 mg/kg, ip measured after 24 hrs (reference value: 6.35 +/- 0.68 g); format: organism-based; details: in vivo
[28] = Toxicity in Swiss mouse assessed as effect on kidney at 0.5 to 10 mg/kg, ip measured after 24 hrs by macroscopic analysis; format: organism-based; details: in vivo, dose 0.5-10 mg/kg
Pichia kudriavzevii [29] = test: Fungicidal activity against Candida krusei ATCC 34135 assessed as fungal killing incubated for 48 hrs followed by plating on SD agar plate; format: functional; details: read-out: MFC99.9
Nakaseomyces glabratus [30] = test: Fungicidal activity against Candida glabrata ATCC 2001 assessed as fungal killing incubated for 48 hrs followed by plating on SD agar plate; format: functional; details: read-out: MFC99.9
Candida albicans [31] = test: Antifungal activity against Candida albicans isolate 11 assessed as reduction in fungal growth incubated for 48 hrs by broth microdilution method; format: functional
Candida albicans [32] = test: Disruption of cell membrane in Candida albicans ATCC 10231 assessed as increase in number of invagination at 2 times of MIC incubated for 1 hr by SEM analysis
[33] = Toxicity in Swiss mouse assessed as relative liver weight at 3 mg/kg, ip measured after 24 hrs (reference value: 49.42 +/- 7.17 g); format: organism-based; details: in vivo
[34] = Toxicity in Swiss mouse infected with Candida albicans ATCC 10231 assessed as effect on lung weight at 10 mg/kg, ip administered at 2, 24 and 48 hrs post-infection and measured at 24 hrs after last dose; format: organism-based; details: in vivo, 72 h
Candida albicans [35] = test: Antifungal activity against Candida albicans isolate 13 assessed as reduction in fungal growth incubated for 48 hrs by broth microdilution method; format: functional
Candida albicans [36] = test: Antifungal activity against Candida albicans isolate 10 assessed as reduction in fungal growth incubated for 48 hrs by broth microdilution method; format: functional
[37] = Toxicity in Swiss mouse assessed as ataxia at 20 mg/kg, ip measured after 30 mins; format: organism-based; details: in vivo, 0.5 h

[Cl-].[N-]=[N+]=NCCCCCCCCCCCCOCCCc1ccc[n+](Cc2ccccc2)c1
MIC (Candida albicans [1]): 3.9 µg/mL | Activity [2]: 43.25 g | Activity [3]: Non-Toxic | Activity [4]: 15.52 g | log(activity) (Candida albicans [5]): 3 | Activity (Candida albicans [6]): Active | Activity [7]: Toxic | Activity [8]: 45 g | Activity (Candida tropicalis): Active | MIC (Candida albicans [9]): 7.8 µg/mL | MFC (Candida albicans [10]): 31.2 µg/mL | Activity [11]: 2.93 g | MIC (Candida albicans [12]): 15.6 µg/mL | MFC (Candida albicans [13]): 31.2 µg/mL | Activity [14]: Non-Toxic | log(activity) (Candida albicans [15]): 2 | MIC (Pichia kudriavzevii [16]): 3.9 µg/mL | MIC (Pichia kudriavzevii [17]): 3.9 µg/mL | Activity (Nakaseomyces glabratus [18]): Active | MFC (Candida albicans [19]): 7.8 µg/mL | MIC (Candida albicans [20]): 7.8 µg/mL | Activity [21]: Non-Toxic | MFC (Candida albicans [22]): 7.8 µg/mL | Activity [23]: 2.85 g | Activity [24]: 31.37 g | MIC (Candida albicans [25]): 1.95 µg/mL | Activity [26]: 4.29 g | Activity [27]: 5.33 g | Activity [28]: Non-Toxic | MFC (Pichia kudriavzevii [29]): 7.8 µg/mL | MFC (Nakaseomyces glabratus [30]): 7.8 µg/mL | MIC (Candida albicans [31]): 7.8 µg/mL | Activity (Candida albicans [32]): Active | Activity [33]: 45.03 g | Activity [34]: Non-Toxic | MIC (Candida albicans [35]): 7.8 µg/mL | MIC (Candida albicans [36]): 15.6 µg/mL | Activity [37]: Toxic
